Measurements reported in ChEMBL document CHEMBL1151162, “Coumarins from Opopanax chironium. New dihydrofuranocoumarins and differential induction of apoptosis by imperatorin and heraclenin” (J Nat Prod, 2004).
The source made the active and inactive calls. The calls are words filed in the database; no cut-off is given here.

Key:
Assay type in all cases: functional, cell-based
[1] = system: Jurkat; assay: Induction of cell cycle arrest in human Jurkat cells assessed as accumulation at G2/M phase at 25 ug/mL after 48 hrs
[2] = system: Jurkat; assay: Induction of cell cycle arrest in human Jurkat cells assessed as accumulation at G2/M phase after 48 hrs
[3] = system: Jurkat; assay: Induction of DNA fragmentation at G1/S phase in human Jurkat cells after 72 hrs by propidium iodide and FITC-dUTP double staining
[4] = system: Jurkat; assay: Induction of apoptosis in human Jurkat cells assessed as hypodiploidic cells after 72 hrs
[5] = system: Jurkat; assay: Induction of DNA fragmentation at G2/M phase in human Jurkat cells after 72 hrs by propidium iodide and FITC-dUTP double staining

SMILES	Activity [1]	Activity [2]	Activity [3]	Activity [4]	Activity [5]
CC(C)=CCOc1c2occc2cc2ccc(=O)oc12	inactive	inactive	Active	–	–
CC1(C)O[C@@H]1COc1c2occc2cc2ccc(=O)oc12	–	Active	–	Active	Active
